Our source for the IC50 values is patent US20220402950A1, “SUBSTITUTED BENZIMIDAZOLES AS PAD4 INHIBITORS” (BRISTOL-MYERS SQUIBB COMPANY, priority 2018, published 2022).

The target in this assay is human PAD4 (hPAD4) (Homo sapiens, UniProt Q9UM07). In words: RFMS Human PAD4 Functional Assay. Format: biochemical. Particulars: 5 nM hPAD4, 250 μM BAEE. Here is the method: RFMS Human PAD4 Functional Assay:
Compounds were solubilized in 100% DMSO to achieve a 10 mM compound concentration. Compound stock solutions were stored at RT. A series of dilutions were prepared in DMSO and mixed 8 times with 20 μL mixing volume. Final top concentration of compound in the assay is 50 μM.
0.13 μL of compound solution was added to 13 μL of 10 nM PAD4 in assay buffer. After 30 min 13 μl of 500 μM of BAEE was added in 25 mM hepes, pH 7.5, 5 mM NaCl, 1 mM DTT, 0.2 mg/ml BSA, 0.01% CHAPS, 50 μM Calcium, 5 μM TPEN was added and the reaction incubated for 90 min at 37° C. The enzymatic reaction was quenched by addition of 15 μl of 6.1N TCA, 100% Final Concentration is 20%, 35 μl of 8.5 mM phenyl glyoxal (final concentration 4 mM) is then added and the reaction is incubated for 30 min at 37° C.
After 30 minutes the plates are spun down to remove all precipitate. The enzyme reaction was quenched with an equal volume of methanol containing internal standard (modified citrulline). Samples were loaded onto the Rapid Fire RF300 system (Agilent) wherein they were first sipped for 1000 ms and then directly loaded to a C18 separations cartridge using a mixture of acetonitrile containing 0.01% formic acid for 3000 ms desalting. The flow rate of the mobile phase was 1.5 ml/min.
The dwell time for each transition was set at 200 ms, and the ESI voltage was used at 5500 with a source temperature of 400° C. Extracted ion peaks for each transition were integrated using the Rapid Fire Integrator software. Peak area of analyte was normalized with internal standard.).

The mark [1] stands for this setting: hPAD4 RFMS IC50, human PAD4, rapid-fire mass spectrum (RFMS) assay.
Where [2] appears, read: human PAD4, rapid-fire mass spectrum (RFMS) assay, read-out: hPAD4 RFMS IC50.

pIC50: −log10 of the molar value. Like-named read-outs stand apart in the source and are kept apart here.

Chain of human PAD4 (hPAD4) (Q9UM07 whole entry): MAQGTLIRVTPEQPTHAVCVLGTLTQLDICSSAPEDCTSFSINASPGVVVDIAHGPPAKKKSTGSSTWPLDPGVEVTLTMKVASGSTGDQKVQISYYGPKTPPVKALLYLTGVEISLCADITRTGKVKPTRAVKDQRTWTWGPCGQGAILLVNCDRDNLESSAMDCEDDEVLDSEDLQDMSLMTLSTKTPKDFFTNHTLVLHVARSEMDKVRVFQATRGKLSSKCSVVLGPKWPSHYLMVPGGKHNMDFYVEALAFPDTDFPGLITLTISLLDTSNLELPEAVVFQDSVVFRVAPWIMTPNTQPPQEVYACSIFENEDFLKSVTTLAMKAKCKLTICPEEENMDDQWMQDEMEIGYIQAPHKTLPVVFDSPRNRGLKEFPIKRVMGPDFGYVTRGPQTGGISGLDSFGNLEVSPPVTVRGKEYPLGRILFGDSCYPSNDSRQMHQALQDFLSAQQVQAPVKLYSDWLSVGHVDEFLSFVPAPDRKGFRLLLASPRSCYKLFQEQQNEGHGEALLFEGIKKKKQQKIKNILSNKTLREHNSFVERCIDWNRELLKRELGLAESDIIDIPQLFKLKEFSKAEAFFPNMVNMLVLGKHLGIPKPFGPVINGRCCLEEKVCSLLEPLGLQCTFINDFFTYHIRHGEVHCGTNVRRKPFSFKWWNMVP

A word on the pIC50: it is the IC50 on a negative log10 scale, so that one unit is a factor of ten. `COc1cc(C(=O)N2C[C@H]3CC[C@@H]2[C@@H]3N)cc2nc(-c3cc4cccc(C5CC(C(=O)N6CC[C@@H](O)C6)C5)c4n3CC3CC3)n(C)c12` (single isomer, unassigned) [Example 51]: the pIC50 under setting [1] is 7.32.
On the same count and under the same terms, with `COc1cc(C(=O)N2C[C@H](N)C[C@@H](F)C2)cc2nc(-c3cc4cccc(C5CC(C(=O)N6CCCC6)C5)c4n3CC3CC3)n(C)c12` (single isomer, unassigned) [Example 115] the figure was 7.19; with `COC(=O)Nc1ccc(-c2cccc3cc(-c4nc5cc(C(=O)N6C[C@H]7CC[C@@H]6[C@@H]7N)cc(OC)c5n4C)n(CC4CC4)c23)cn1` [Example 105, methyl N-[5-(2-{5-[(1R,4R,7R)-7-amino-2-azabicyclo[2.2.1]heptane-2-carbonyl]-7-methoxy-1-methyl-1H-1,3-benzodiazol-2-yl}-1-(cyclopropylmethyl)-1H-indol-7-yl)pyridin-2-yl]carbamate], 7.00; with `COc1cc(C(=O)N2C[C@H]3CC[C@@H]2[C@@H]3N)cc2nc(-c3cc4cccc(-c5ccc6c(=O)[nH]ccc6c5)c4n3CC3CC3)n(C)c12` [Example 102, 6-(2-{5-[(1R,4R,7R)-7-amino-2-azabicyclo[2.2.1]heptane-2-carbonyl]-7-methoxy-1-methyl-1H-1,3-benzodiazol-2-yl}-1-(cyclopropylmethyl)-1H-indol-7-yl)-1,2-dihydroisoquinolin-1-one], 6.88.
Turning to “1-(2-(5-((1R,4R,7R)- 7-amino-2- azabicyclo[2.2.1]heptane- 2-carbonyl)-7- methoxy-1-methyl- 1H-benzo[d]imidazol- 2-yl)-1- (cyclopropylmethyl)- 1H-indol-7-yl)-N- (pyridin-3- yl)piperidine-1- carboxamide [Example 244]”, the pIC50 under setting [2] was 7.72.
The same measure, in the same setting: with `COc1cc(C(=O)N2C[C@H]3CC[C@@H]2[C@@H]3N)cc2nc(-c3cc4cccc(NC5CCNCC5)c4n3CC3CC3)n(C)c12` [Example 158, ((1R,4R,7R)-7-amino-2-azabicyclo[2.2.1]heptan-2-yl)(2-(1-(cyclopropylmethyl)-7-(piperidin-4-ylamino)-1H-indol-2-yl)-7-methoxy-1-methyl-1H-benzo[d]imidazol-5-yl)methanone] the figure was 7.16.
With `COc1cc(C(=O)N2C[C@H](N)C[C@@H](F)C2)cc2nc(-c3cc4cccc(-c5ccc6c(c5)CC(=O)N6)c4n3CC3CC3)n(C)c12` [Example 207, 5-(2-(5-((3R,5R)-3-amino-5-fluoropiperidine-1-carbonyl)-7-methoxy-1-methyl-1H-benzo[d]imidazol-2-yl)-1-(cyclopropylmethyl)-1H-indol-7-yl)indolin-2-one], the negative-log IC50 (pIC50) under setting [1] was 7.15.
The same measure, in the same setting: under `COc1cc(C(=O)N2C[C@H]3CC[C@@H]2[C@@H]3N)cc2nc(-c3cc4cccc(CCC(N)=O)c4n3CC3CC3)n(C)c12` [Example 20, 3-(2-{5-[(1R,4R,7R)-7-amino-2-azabicyclo[2.2.1]heptane-2-carbonyl]-7-methoxy-1-methyl-1H-1,3-benzodiazol-2-yl}-1-(cyclopropylmethyl)-1H-indol-7-yl)propanamide] stands 7.33.
With `COc1cc(C(=O)N2C[C@H]3CC[C@@H]2[C@@H]3N)cc2nc(-c3cc4cccc(CCc5c(C)n[nH]c5C)c4n3CC3CC3)n(C)c12` [Example 33, (1R,4R,7R)-2-{2-[1-(cyclopropylmethyl)-7-[2-(3,5-dimethyl-1H-pyrazol-4-yl)ethyl]-1H-indol-2-yl]-7-methoxy-1-methyl-1H-1,3-benzodiazole-5-carbonyl}-2-azabicyclo[2.2.1]heptan-7-amine], the pIC50 under setting [1] is 6.89.
On to `COc1cc(C(=O)N2C[C@H]3CC[C@@H]2[C@@H]3N)cc2nc(-c3cc4cccc(C5CN(C(=O)Cc6ccccn6)C5)c4n3CC3CC3)n(C)c12` [Example 75, 1-[3-(2-{5-[(1R,4R,7R)-7-amino-2-azabicyclo[2.2.1]heptane-2-carbonyl]-7-methoxy-1-methyl-1H-1,3-benzodiazol-2-yl}-1-(cyclopropylmethyl)-1H-indol-7-yl)azetidin-1-yl]-1-(pyridin-2-yl)ethan-1-one], for which the negative logarithm of the IC50 (pIC50) under setting [1] was 7.47.
`COc1cc(C(=O)N2C[C@H]3CC[C@@H]2[C@@H]3N)cc2nc(-c3cc4cccc(C)c4n3CC3CC3)n(C)c12` [Example 147, ((1R,4R,7R)-7-amino-2-azabicyclo[2.2.1]heptan-2-yl)(2-(1-(cyclopropylmethyl)-7-methyl-1H-indol-2-yl)-7-methoxy-1-methyl-1H-benzo[d]imidazol-5-yl)methanone] gave a pIC50 under setting [1] of 7.10.
Under setting [1], `COc1cc(C(=O)N2C[C@H]3CC[C@@H]2[C@@H]3N)cc2nc(-c3cc4cccc(C5CC(C(=O)N(C)C)C5)c4n3CC3CC3)n(C)c12` (single isomer, unassigned) [Example 48] gave a pIC50 of 7.30.
The same measure, in the same setting: under `COc1cc(C(=O)N2C[C@H]3CC[C@@H]2[C@@H]3N)cc2nc(-c3cc4cccc(C5CCN(C(=O)OCc6ccccc6)C5)c4n3CC3CC3)n(C)c12` (stereo partly drawn) [Example 28, benzyl 3-(2-{5-[(1R,4R,7R)-7-amino-2-azabicyclo[2.2.1]heptane-2-carbonyl]-7-methoxy-1-methyl-1H-1,3-benzodiazol-2-yl}-1-(cyclopropylmethyl)-1H-indol-7-yl)pyrrolidine-1-carboxylate] stands 7.17.
As for `COC(=O)N1CC(c2cccc3cc(-c4nc5cc(C(=O)N6C[C@H]7CC[C@@H]6[C@@H]7N)cc(OC)c5n4C)n(CC4CC4)c23)C1` [Example 40, Methyl 3-(2-(5-((1R,4R,7R)-7-amino-2-azabicyclo[2.2.1]heptane-2-carbonyl)-7-methoxy-1-methyl-1H-benzo[d]imidazol-2-yl)-1-(cyclopropylmethyl)-1H-indol-7-yl)azetidine-1-carboxylate], the pIC50 under setting [2] was 7.68.
Compound `COc1cc(C(=O)N2C[C@H]3CC[C@@H]2[C@@H]3N)cc2nc(-c3cc4cccc(-c5cc[nH]n5)c4n3CC3CC3(Cl)Cl)n(C)c12` (stereo partly drawn) [Example 152, ((1R,4R,7R)-7-amino-2-azabicyclo[2.2.1]heptan-2-yl)(2-(1-((2,2-dichlorocyclopropyl)meth-yl)-7-(1H-pyrazol-3-yl)-1H-indol-2-yl)-7-methoxy-1-methyl-1H-benzo[d]imidazol-5-yl)methanone] gave a pIC50 under setting [1] of 6.90.
As for `COc1cc(C(=O)N2C[C@H]3CC[C@@H]2[C@@H]3N)cc2nc(-c3cc4cccc(CC5CCCCO5)c4n3CC3CC3)n(C)c12` (stereo partly drawn) [Example 36, (1R,4R,7R)-2-{2-[1-(cyclopropylmethyl)-7-[(oxan-2-yl)methyl]-1H-indol-2-yl]-7-methoxy-1-methyl-1H-1,3-benzodiazole-5-carbonyl}-2-azabicyclo[2.2.1]heptan-7-amine], the pIC50 under setting [1] was 6.70.
Take `COc1cc(C(=O)N2C[C@H]3CC[C@@H]2[C@@H]3N)cc2nc(-c3cc4cccc(Nc5ccccc5CO)c4n3CC3CC3)n(C)c12` [compound 182, ((1R,4R,7R)-7-amino-2-azabicyclo[2.2.1]heptan-2-yl)(2-(1-(cyclopropylmethyl)-7-((2-(hydroxymethyl)phenyl)amino)-1H-indol-2 yl)-7-methoxy-1-methyl-1H-benzo[d]imidazol-5-yl)methanone]: the pIC50 under setting [2] is 6.72.
Consider `COc1cc(C(=O)N2C[C@H]3CC[C@@H]2[C@@H]3N)cc2nc(-c3cc4cccc(-c5cn[nH]c5)c4n3CC3CC3(Cl)Cl)n(C)c12` (stereo partly drawn) [Example 151, ((1R,4R,7R)-7-amino-2-azabicyclo[2.2.1]heptan-2-yl)(2-(1-((2,2-dichlorocyclopropyl)meth-yl)-7-(1H-pyrazol-4-yl)-1H-indol-2-yl)-7-methoxy-1-methyl-1H-benzo[d]imidazol-5-yl)methanone], for which the pIC50 under setting [1] is 6.98.
Still for that read-out and setting: under `[2H]C([2H])([2H])N(C(=O)C1CC(c2cccc3cc(-c4nc5cc(C(=O)N6C[C@H]7CC[C@@H]6[C@@H]7N)cc(OC)c5n4C)n(CC4CC4)c23)C1)C([2H])([2H])[2H]` (single isomer, unassigned; isomer 1) [Example 195] stands 7.80.
`COc1cc(C(=O)N2C[C@H]3CC[C@@H]2[C@@H]3N)cc2nc(-c3cc4cccc(CCCC(=O)O)c4n3CC3CC3)n(C)c12` [Example 60, 4-(2-{5-[(1R,4R,7R)-7-amino-2-azabicyclo[2.2.1]heptane-2-carbonyl]-7-methoxy-1-methyl-1H-1,3-benzodiazol-2-yl}-1-(cyclopropylmethyl)-1H-indol-7-yl)butanoic Acid]: the pIC50 under setting [2] was 6.97.
Under setting [1], `COc1cc(C(=O)N2C[C@H]3CC[C@@H]2[C@@H]3N)cc2nc(-c3cc4cccc(C5CN(C(N)=O)C5)c4n3CC3CC3)n(C)c12` [Example 66, 3-(2-{5-[(1R,4R,7R)-7-amino-2-azabicyclo[2.2.1]heptane-2-carbonyl]-7-methoxy-1-methyl-1H-1,3-benzodiazol-2-yl}-1-(cyclopropylmethyl)-1H-indol-7-yl)azetidine-1-carboxamide] showed a pIC50 of 7.52.
